Reference: the Kinase Knowledgebase extract (Sharma et al. 2016)

Biological target: MAPK14 (UniProt Q16539)
Assay: Inhibition of MAPK14 Kinase Activity

MAPK14, sequence (Q16539 whole entry, looked up): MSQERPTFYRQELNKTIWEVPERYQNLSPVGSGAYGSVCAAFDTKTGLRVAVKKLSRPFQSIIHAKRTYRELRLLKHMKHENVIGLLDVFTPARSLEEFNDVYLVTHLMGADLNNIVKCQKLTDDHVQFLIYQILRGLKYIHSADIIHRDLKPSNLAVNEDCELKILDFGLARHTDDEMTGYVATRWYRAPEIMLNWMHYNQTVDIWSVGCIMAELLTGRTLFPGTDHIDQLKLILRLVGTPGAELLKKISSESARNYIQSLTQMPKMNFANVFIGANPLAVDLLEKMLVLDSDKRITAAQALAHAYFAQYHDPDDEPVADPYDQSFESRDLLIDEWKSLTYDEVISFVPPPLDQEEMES

| Compound | IC50 [µM] |
| --- | --- |
| Cn1nc(C(C)(C)C)cc1NC(=O)Nc1cc(F)cc(OC2CCN(C(=O)c3ccc4cc[nH]c4c3)CC2)c1 | < 5 |
| Cn1nc(C(C)(C)C)cc1NC(=O)Nc1cccc(OC2CCN(C(=O)OCc3ccccc3)CC2)c1 | < 5 |
| Cn1nc(C(C)(C)C)cc1NC(=O)Nc1cccc(OC2CCN(C(=O)c3c(Cl)cncc3Cl)CC2)c1 | < 5 |
| Cn1nc(C(C)(C)C)cc1NC(=O)Nc1cc(F)cc(OC2CCN(C(=O)c3c(F)cccc3F)CC2)c1 | < 5 |
| Cc1ccc(-n2nc(C(C)(C)C)cc2NC(=O)Nc2ccc(OCC3CCN(C(=O)c4c(Cl)cccc4Cl)CC3)c3ccccc23)cc1 | < 5 |
| Cn1nc(C(C)(C)C)cc1NC(=O)Nc1ccc(OC2CCN(C(=O)OC(C)(C)C)CC2)cc1 | < 5 |
| COc1cccc(F)c1C(=O)N1CCC(Oc2cccc(NC(=O)Nc3cc(C(C)(C)C)nn3C)c2)CC1 | < 5 |
| Cn1nc(C(C)(C)C)cc1NC(=O)Nc1cc(F)cc(OC2CCN(C(=O)C3CC3)CC2)c1 | < 5 |
| Cc1ccsc1C(=O)N1CCC(Oc2cccc(NC(=O)Nc3cc(C(C)(C)C)nn3C)c2)CC1 | < 5 |
| Cc1ccc(-n2nc(C(C)(C)C)cc2NC(=O)Nc2ccc(OC3CCN(C(=O)C4CC4)CC3)cc2)cc1 | < 5 |
| Cn1nc(C(C)(C)C)cc1NC(=O)Nc1ccc(C(=O)N2CCN(Cc3ccncc3)CC2)cc1 | < 5 |
| Cn1nc(C(C)(C)C)cc1NC(=O)Nc1cc(F)cc(OC2CCN(C(=O)C3(C)CC3)CC2)c1 | < 5 |
| Cc1ccc(-n2nc(C(C)(C)C)cc2NC(=O)Nc2ccc(N3CCN(C(=O)C4CC4C)CC3)cc2)cc1 (configuration not stated) | < 5 |
| Cc1ccc(-n2nc(C(C)(C)C)cc2NC(=O)Nc2ccc(OC3CCN(C(=O)c4c(Cl)cccc4Cl)CC3)cc2)cc1 | < 5 |
| CC(C)C(=O)N1CCC(Oc2ccc(NC(=O)Nc3cc(C(C)(C)C)nn3C)cc2)CC1 | < 5 |
| Cc1ccc(-n2nc(C(C)(C)C)cc2NC(=O)Nc2ccc(N3CCN(C(=O)C4(C)CC4)CC3)cc2)cc1 | < 5 |
| Cn1nc(C(C)(C)C)cc1NC(=O)Nc1cccc(C2CCN(C(=O)c3c(Cl)cccc3Cl)CC2)c1 | < 5 |
| COc1ncccc1C(=O)N1CCC(Oc2ccc(NC(=O)Nc3cc(C(C)(C)C)nn3C)cc2)CC1 | < 5 |
| Cn1nc(C(C)(C)C)cc1NC(=O)Nc1cccc(OC2CCN(C(=O)c3ccc(Cl)s3)CC2)c1 | < 5 |
| Cc1cc(C(=O)N2CCC(Oc3cccc(NC(=O)Nc4cc(C(C)(C)C)nn4C)c3)CC2)c(C)[nH]1 | < 5 |
| Cn1nc(C(C)(C)C)cc1NC(=O)Nc1cccc(OC2CCN(C(=O)c3ccccc3)CC2)c1 | < 5 |

| Compound | IC50 [µM] |
| --- | --- |
| CC(=O)N1CCN(Cc2ccc(NC(=O)Nc3cc(C(C)(C)C)nn3-c3ccc(C)cc3)cc2)CC1 | < 5 |
| Cn1nc(C(C)(C)C)cc1NC(=O)Nc1ccc(CN2CCN(C(=O)c3ccc(F)cc3F)CC2)c(F)c1 | < 5 |
| Cn1nc(C(C)(C)C)cc1NC(=O)Nc1cccc(OC2CCN(C(=O)c3c(F)cccc3Cl)CC2)c1 | < 5 |
| Cn1nc(C(C)(C)C)cc1NC(=O)Nc1cc(F)cc(OC2CCN(C(=O)c3ccc4[nH]ccc4c3)CC2)c1 | < 5 |
| Cn1nc(C(C)(C)C)cc1NC(=O)Nc1ccc(CN2CCN(C(=O)c3c(F)cccc3F)CC2)cc1F | < 5 |
| Cc1ccc(-n2nc(C(C)(C)C)cc2NC(=O)Nc2ccc(CN3CCN(C(=O)c4c(F)cccc4F)CC3)cc2)cc1 | < 5 |
| Cn1nc(C(C)(C)C)cc1NC(=O)Nc1cc(F)cc(OC2CCN(C(=O)c3cc[nH]c3)CC2)c1 | < 5 |
| Cn1nc(C(C)(C)C)cc1NC(=O)Nc1cc(F)cc(OC2CCN(C(=O)c3c(F)cccc3Cl)CC2)c1 | < 5 |
| Cn1nc(C(C)(C)C)cc1NC(=O)Nc1ccc(CN2CCN(C(=O)c3ccc(Cl)cc3Cl)CC2)cc1 | < 5 |
| Cc1ccc(-n2nc(C(C)(C)C)cc2NC(=O)Nc2ccc(N3CCN(C(=O)CC(C)(C)C)CC3)cc2)cc1 | < 5 |
| Cn1nc(C(C)(C)C)cc1NC(=O)Nc1ccc(CN2CCN(C(=O)c3ccc(F)cc3F)CC2)cc1F | < 5 |
| Cn1nc(C(C)(C)C)cc1NC(=O)Nc1cc(F)cc(OC2CCN(C(=O)c3c[nH]c4ccccc34)CC2)c1 | < 5 |
| CC(C)n1nc(C(C)(C)C)cc1NC(=O)Nc1ccc(CN2CCN(C(=O)c3c(Cl)cccc3Cl)CC2)cc1 | < 5 |
| Cn1nc(C(C)(C)C)cc1NC(=O)Nc1cccc(OC2CCN(C(=O)c3ccccc3F)CC2)c1 | < 5 |
| COc1cccc(F)c1C(=O)N1CCC(Oc2cc(F)cc(NC(=O)Nc3cc(C(C)(C)C)nn3C)c2)CC1 | < 5 |
| Cn1nc(C(C)(C)C)cc1NC(=O)Nc1ccc(OC2CCN(C(=O)c3c(Cl)cncc3Cl)CC2)cc1 | < 5 |
| CCn1nc(C(C)(C)C)cc1NC(=O)Nc1ccc(CN2CCN(C(=O)c3c(F)cccc3F)CC2)cc1 | < 5 |
| Cn1nc(C(C)(C)C)cc1NC(=O)Nc1cc(F)cc(OC2CCN(C(N)=O)CC2)c1 | < 5 |
| Cc1nn(C)c(C)c1C(=O)N1CCC(Oc2ccc(NC(=O)Nc3cn(C)nc3C(C)(C)C)cc2)CC1 | < 5 |
| Cn1nc(C(C)(C)C)cc1NC(=O)Nc1ccc(CN2CCN(C(=O)c3c(F)cccc3Cl)CC2)cc1 | < 5 |
| Cn1nc(C(C)(C)C)cc1NC(=O)Nc1ccc(OC2CCN(C(=O)c3ccccc3)CC2)cc1 | < 5 |
